Assay results taken from patent publication US5462954A, “Substituted phenyl phenol leukotriene antagonists” (Eli Lilly and Company, priority 1994, dated 1995).
Where a name gives a salt, the structure may show the parent alone.

What follows are compounds tested against binding of tritiated LTB4 to guinea pig lung membranes (Cavia porcellus, UniProt H0VYV8) (assay: biochemical). Details: read-out: pKi (mean -log Ki) (converted).
binding of tritiated LTB4 to guinea pig lung membranes, sequence (H0VYV8 1-348): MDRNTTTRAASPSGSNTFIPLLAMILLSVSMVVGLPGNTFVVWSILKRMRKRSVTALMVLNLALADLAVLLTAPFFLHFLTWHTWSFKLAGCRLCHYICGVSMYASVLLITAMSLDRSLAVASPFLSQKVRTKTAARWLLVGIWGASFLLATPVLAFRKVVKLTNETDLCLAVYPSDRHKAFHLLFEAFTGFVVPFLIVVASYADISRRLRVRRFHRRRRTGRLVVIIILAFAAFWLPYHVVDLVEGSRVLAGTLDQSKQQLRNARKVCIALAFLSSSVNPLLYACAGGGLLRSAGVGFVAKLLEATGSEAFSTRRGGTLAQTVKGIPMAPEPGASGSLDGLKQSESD
Protocol: The effectiveness of compounds of Formula I to inhibit the binding of tritiated LTB4 to guinea pig lung membranes was determined as follows.
The binding reaction was terminated by the addition of 1 mL ice cold wash buffer (25 mM Tris-HCl, pH 7.5) followed immediately by vacuum filtration over Whatman GF/C glass fiber filters using a Brandel (Gaithersburg, Md.) 48 place harvester. The filters were washed three times with 1 mL of wash buffer. Retained radioactivity was determined by liquid scintillation counting at 50% counting efficiency using Ready Protein Plus cocktail (Beckman, Fullerton, Calif.). Nondisplaceable binding was determined in the presence of 1 μM LTB4 and was usually less than 10% of total binding. […] The data reported below is the mean -log Ki, otherwise known as the pKi, for n experiments.

Row | Ki | Structure (SMILES)
1 | 0.0661 nM | CCc1cc(-c2ccc(F)cc2)c(O)cc1OCCCOc1ccc(C#CCCC(=O)O)cc1CCC(=O)O [Example 83, 5-[3-[2-(1-Carboxy)ethyl]-4-[3-[2-ethyl-4-(4-fluorophenyl)-5-hydroxyphenoxy]propoxy]phenyl]-4-pentynoic acid disodium salt 0.4 hydrate]
2 | 14.1 nM | CCc1cc(-c2ccccc2)c(O)cc1OCCCOc1ccc2c(=O)c3ccccc3oc2c1CCC(=O)O [Example 64, 3-[4-[3-[3-(2-Ethyl-5-hydroxy-4-phenylphenoxy)propoxy]-9-oxo-9H-xanthene]]propanoicacid sodium salt hemihydrate]
3 | 2.29 nM | CCc1cc(-c2ccc(F)cc2)c(O)cc1OCCCOc1ccccc1C(C)(C)CC(=O)O [Example 27, 3,3-Dimethyl-3-(2-(3-(2-ethyl-4-(4-fluorophenyl)-5-hydroxyphenoxy)propoxy)phenyl)propionic acid]
4 | 2.69 nM | CCc1cc(-c2ccc(F)cc2)c(O)cc1OCCCOc1ccccc1CC(C)(C)c1nnn[nH]1 [Example 28, 2-Methyl-2-(1H-tetrazol-5-yl)-3-(2-(3-(2-ethyl-4-(4-fluorophenyl)-5-hydroxyphenoxy)propoxy)phenyl)propane]
5 | 0.219 nM | CCc1cc(-c2ccc(F)cc2)c(O)cc1OCCCOc1ccc2c(c1CCC(=O)O)CCC(CC(=O)O)C2=O (stereo not drawn) [Example 51, 3-(5-(6-(4-(4-Fluorophenyl)-5-hydroxy-2-ethylphenoxy)propoxy)-2-carboxymethyl-1,2,3,4-tetrahydronaphthalen-1(2H)-one)propanoic acid]
6 | 1.55 nM | CCc1cc(-c2ccc(F)cc2)c(O)cc1OCCCOc1ccc(C(=O)CC(C)(C)CC(=O)O)cc1CCC(=O)O [Example 53]
7 | 0.525 nM | CCc1cc(-c2ccc(F)cc2)c(O)cc1OCCCOc1cccc2c1CCC(=O)O2 [Example 91, 5-[3-[4-(4-Fluorophenyl)-2-ethyl-5-hydroxyphenoxy]propoxy]-3,4-dihydro-2H-1-benzopyran-2-one]
8 | 0.851 nM | CCc1cc(-c2ccccc2)c(O)cc1OCCCOc1ccc2c(c1CCC(=O)O)CCC(CC(=O)O)C2=O (stereo not drawn) [Example 50, 3-(5-(6-(4-Phenyl-5-hydroxy-2-ethylphenoxy)propoxy)-2-carboxymethyl-1,2,3,4-tetrahydronaphthalen-1(2H)-one)propanoic acid]
9 | 3.72 nM | CCc1cc(-c2ccc(F)cc2)c(O)cc1OCCCCOc1ccccc1CCC(=O)O [Example 23, 3-(2-(4-(2-Ethyl-4-(4-fluorophenyl)-5-hydroxyphenoxy)butyloxy)phenyl)propionic acid]
10 | 3.63 nM | CCc1cc(-c2ccc(F)cc2)c(O)cc1OCCCOc1ccccc1CCC(=O)O [Example 4, 3-(2-(3-(2-Ethyl-4-(4-fluorophenyl)-5-hydroxyphenoxy)propoxy)phenyl)propionic acid]
11 | 11.5 nM | CCCc1c(OCCCOc2cc(O)c(-c3ccccc3)cc2CC)cccc1Oc1ccccc1-c1nnn[nH]1 [Example 63, 5-Ethyl-4-[3-[2-propyl-3-[2-(2H-tetrazol-5-yl)phenoxy]phenoxy]propoxy][1,1'-biphenyl]-2-ol disodium salt sesquihydrate]
12 | 245 nM | CCc1cc(-c2ccc(F)cc2)c(O)cc1OCCCOc1ccccc1CCC(=O)N(C)C [Example 18, N,N-Dimethyl-3-(2-(3-(2-ethyl-4-(4-fluorophenyl)-5-hydroxyphenoxy)propoxy)phenyl)propionamide]
13 | 0.263 nM | CCc1cc(-c2ccc(F)cc2)c(O)cc1OCCCOc1ccc2c(c1CCC(=O)O)CC(CC(=O)O)C2=O (stereo not drawn) [Example 52, 3-(4-(5-(4-(4-Fluorophenyl)-5-hydroxy-2-ethylphenoxy)propoxy)-2-carboxymethyl-2,3-dihydroinden-1(2H)-one)propanoic acid]
14 | 53.7 nM | CCc1cc(-c2ccc(F)cc2)c(O)cc1OCCCOc1cccc(Oc2ccccc2C(=O)O)c1Cc1ccccc1 [Example 76, 2-[2-(Phenylmethyl)-3-[3-[2-ethyl-5-hydroxy-4-(4-fluorophenyl)phenoxy]propoxy]phenoxy]benzoic acid]
15 | 8.32 nM | CCc1cc(-c2ccc(F)cc2)c(O)cc1OCCCOc1cccc(CCC(=O)O)c1 [Example 92, 3-(3-{3-[2-Ethyl-4-(4-fluorophenyl)-5-hydroxyphenyloxy]propoxy}phenyl)propanoic acid]
16 | 8.13 nM | CCCc1c(OCCCOc2cc(O)c(-c3ccc(F)cc3)cc2CC)cccc1Oc1ccccc1CC(=O)O [Example 77, 2-[2-Propyl-3-[3-[2-ethyl-5-hydroxy-4-(4-fluorophenyl)phenoxy]propoxy]phenoxy]phenylacetic acid]
17 | 81.3 nM | CCSc1cc(-c2ccc(F)cc2)c(O)cc1OCCCOc1ccccc1CCC(=O)O [Example 31, 3-(2-(3-(2-Ethylthio-4-(4-fluorophenyl)-5-hydroxyphenoxy)propoxy)phenyl)propionic acid]
18 | 20.9 nM | CCCc1cc(CCC(=O)O)ccc1OCCCOc1cc(O)c(-c2ccc(F)cc2)cc1CC [Example 94, 3-(4-{3-[2-Ethyl-4-(4-fluorophenyl)-5-hydroxyphenyloxy]propoxy}-3-propylphenyl)propanoic acid]
19 | 5.01 nM | CCc1cc(-c2ccc(F)cc2)c(O)cc1OCCCOc1cccc(OC)c1CCC(=O)O [Example 6, 3-(2-(3-(2-Ethyl-4-(4-fluorophenyl)-5-hydroxyphenoxy)propoxy)-6-methoxyphenyl)propionic acid]
20 | 17 nM | CCCc1c(OCCCOc2cc(O)c(-c3ccc(F)cc3)cc2CC)cccc1Oc1cc(F)ccc1C(=O)O [Example 71, 4-Fluoro-2-[2-propyl-3-[3-[2-ethyl-5-hydroxy-4-(4-fluorophenyl)phenoxy]propoxy]phenoxy]benzoic acid]
21 | 5.89 nM | CCc1cc(-c2ccc(F)cc2)c(O)cc1OCCCOc1cccc(OCCCCSC)c1CCC(=O)O [Example 15, 3-(2-(3-(2-Ethyl-4-(4-fluorophenyl)-5-hydroxyphenoxy)propoxy)-6-(4-methylthiobutyloxy)phenyl)propionic acid]
22 | 3.63 nM | CCc1cc(-c2ccc(F)cc2)c(O)cc1OCC/C=C\c1ccccc1CCC(=O)O [9 (cis), 3-(2-(4-(2-Ethyl-4-(4-fluorophenyl)-5-hydroxyphenoxy)-(1-butenyl))phenyl)propionic acid]
23 | 3.89 nM | CCc1cc(-c2ccc(F)cc2)c(O)cc1OCC/C=C/c1ccccc1CCC(=O)O [9 (trans), 3-(2-(4-(2-Ethyl-4-(4-fluorophenyl)-5-hydroxyphenoxy)-(1-butenyl))phenyl)propionic acid]
24 | 21.4 nM | CCc1cc(-c2ccc(F)cc2)c(O)cc1OCCCCc1cccc(OC)c1CCC(=O)O [Example 11, 3-(2-(4-(2-Ethyl-4-(4-fluorophenyl)-5-hydroxyphenoxy)butyl)-6-methoxyphenyl)propionic acid]
25 | 5.01 nM | CCc1cc(-c2ccc(F)cc2)c(O)cc1OCCCOc1ccccc1/C=C(\C)C(=O)O [Example 88, 3-(2-(3-(2-Ethyl-4-(4-fluorophenyl)-5-hydroxyphenoxy)propoxy)phenyl)-2-methyl-E-propenoic acid]

Row | Structure (SMILES) | Ki
26 | CCCc1ccc(CCC(=O)O)cc1OCCCOc1cc(O)c(-c2ccc(F)cc2)cc1CC [sodium salt] | 102 nM
27 | O=C(O)CCCCOc1cccc(OCCCOc2cc(O)c(-c3ccc(F)cc3)cc2-c2ccc(F)cc2)c1CCC(=O)O [Example 16, 3-(2-(3-(2,4-Di(4-fluorophenyl)-5-hydroxyphenoxy)propoxy)-6-(4-carboxybutoxy)phenyl)propionic acid] | 17.4 nM
